Source: article PMC5137160, “Optical imaging of MMP-12 active form in inflammation and aneurysm” (Scientific Reports, 2016)

Legend:
[1] = biological target: MMP-12 active form (Mus musculus, UniProt P34960); assay: Sponge model of sterile inflammation, fluorescence imaging of explanted sponges; format: in vivo, C57BL/6 mice; set-up: from tissue; host or cells: subcutaneously implanted polyvinyl alcohol sponges in C57BL/6 mice; conditions: 60 minutes after intravenous administration, 1 nmol
Experimental: Sponge model of sterile inflammation: Pieces of polyvinyl alcohol sponge (Ivalon Ear Wick, 0.9 e × 15 mm, New London, CT) were implanted in dorsal subcutaneous pockets of C57BL/6 mice (originally from Jackson Laboratory, Farmington, CT, n = 24) under isoflurane anesthesia, as described. Animals were re-anesthetized at day 1 or 4 after sponge implantation, and the sponges were removed for imaging or embedded in OCT, snap-frozen, and stored at −80 °C for further analysis.
Fluorescent probes (one nmol in 100 μL saline) were administered through a jugular vein catheter under inhaled isoflurane anesthesia. Blood samples were collected at various time points after probe administration to monitor blood clearance. […] Near-infrared fluorescence reflectance imaging was conducted using an IVIS Spectrum system (Caliper Life Science, Hopkinton, MA) with appropriate excitation (Ex) and emission (Em) filter sets (Ex/Em = 675/720 nm for probe 1 and Ex/Em = 745/800 nm for probes 3 and 4). Fluorescence from 10 μL of blood was converted to % injected dose per gram (% ID/g) using a standard curve derived from serial dilutions of each probe in 10 μL of mouse blood. Tissue fluorescence was quantified as mean efficiency per pixel and was presented as an arbitrary unit (AU) relative to the signal from each probe in 10 μL of mouse blood.

[2] = Stability in mouse blood by HPLC; format: in vitro ADME; conditions: 4 hours at 37 °C
Experimental: (§1) Probes 1, 2, 3 and control probe 4 were synthesized from phosphinic building blocks whose synthesis was previously reported. Briefly, the elongation of the peptide’s sequence as well as the incorporation of the phosphinic building blocks were performed on solid support using a standard Fmoc strategy. After cleavage from the support, pseudo peptide intermediates were purified and subsequently engaged in a coupling reaction with the appropriate dye-NHS ester. The identity and purity of each optical probe were confirmed by analytical HPLC, mass spectrometry analysis and NMR (for detailed protocols and analytical data see supplemental information). The stability of each probe was confirmed in phosphate buffered saline (PBS). Moreover, the stability of probe 3 and its control, probe 4 were evaluated by HPLC in mouse blood over a period of 4 hours at 37 °C.

[3] = Stability in PBS; format: physicochemical
Experimental: as §1

[4] = biological target: T1, hMMP-13 (Homo sapiens, UniProt P45452); assay: MMP inhibition assay (Ki); format: biochemical
T1 construct: made in house
Experimental: (§2) Human MMP-8, -9, -12 and -13 were produced in the laboratory. Other MMPs were purchased from R&D Systems (Minneapolis, MN). MMP inhibition assays were carried out as previously described. Pro-MMPs were pre-activated by p-aminophenylmercuric acetate following the method described by R&D Systems. Titration experiments were carried out to determine active enzyme concentration for each MMP prior to the assay. For each probe, the percentage of inhibition was determined from five different concentrations in triplicates, chosen to reach a range of 20–80% inhibition. Ki values were determined using the method proposed by Horovitz and Leviski[45].

[5] = biological target: T2, hMMP-1 (Homo sapiens, UniProt P03956); assay: MMP inhibition assay (Ki); format: biochemical
T2 construct: purchased R&D Systems (Minneapolis, MN)
T2 sequence (P03956 100-469): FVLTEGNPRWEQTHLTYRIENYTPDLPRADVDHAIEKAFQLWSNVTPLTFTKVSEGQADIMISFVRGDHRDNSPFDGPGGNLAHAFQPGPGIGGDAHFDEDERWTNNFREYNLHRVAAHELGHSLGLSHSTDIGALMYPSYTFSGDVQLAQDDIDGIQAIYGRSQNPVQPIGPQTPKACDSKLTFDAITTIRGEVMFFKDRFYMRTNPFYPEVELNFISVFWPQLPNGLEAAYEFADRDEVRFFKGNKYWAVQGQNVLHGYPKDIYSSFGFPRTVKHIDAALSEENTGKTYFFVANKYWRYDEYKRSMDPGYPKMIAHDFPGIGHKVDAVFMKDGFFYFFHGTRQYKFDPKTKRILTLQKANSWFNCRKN
Experimental: as §2

[6] = Blood clearance and biodistribution after intravenous administration in wild type mice; format: in vivo; conditions: 1 nmol intravenous, 30 and 60 minutes, compared to probe 1
Experimental: Fluorescent probes (one nmol in 100 μL saline) were administered through a jugular vein catheter under inhaled isoflurane anesthesia. Blood samples were collected at various time points after probe administration to monitor blood clearance. Animals were sacrificed at the indicated time points and various organs were harvested. Near-infrared fluorescence reflectance imaging was conducted using an IVIS Spectrum system (Caliper Life Science, Hopkinton, MA) with appropriate excitation (Ex) and emission (Em) filter sets (Ex/Em = 675/720 nm for probe 1 and Ex/Em = 745/800 nm for probes 3 and 4). Fluorescence from 10 μL of blood was converted to % injected dose per gram (% ID/g) using a standard curve derived from serial dilutions of each probe in 10 μL of mouse blood. Tissue fluorescence was quantified as mean efficiency per pixel and was presented as an arbitrary unit (AU) relative to the signal from each probe in 10 μL of mouse blood.

[7] = tested on: human MMPs; assay: Affinity and selectivity profile toward panel of human MMPs; format: biochemical
Experimental: as §2

Chain of MMP-12 active form (P34960 110-473): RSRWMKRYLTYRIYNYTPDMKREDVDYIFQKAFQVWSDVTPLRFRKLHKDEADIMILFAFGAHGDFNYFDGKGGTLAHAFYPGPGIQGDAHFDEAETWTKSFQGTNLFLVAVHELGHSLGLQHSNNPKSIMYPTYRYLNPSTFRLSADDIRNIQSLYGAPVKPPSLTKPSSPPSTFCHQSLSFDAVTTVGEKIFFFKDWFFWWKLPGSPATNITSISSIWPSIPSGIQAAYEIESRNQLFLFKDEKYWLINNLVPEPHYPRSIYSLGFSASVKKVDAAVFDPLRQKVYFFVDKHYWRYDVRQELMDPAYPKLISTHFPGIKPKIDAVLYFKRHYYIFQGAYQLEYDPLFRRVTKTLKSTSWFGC

Row | SMILES | fluorescence signal in explanted sponges [1] | stability in mouse blood [2] | stability in PBS [3] | Ki [4] | Ki [5] | residual blood level [6] | affinity for human MMPs [7]
1 | CC1(C)C(/C=C/C2=C(Oc3ccc(CCC(=O)NCCCOCCOCCOCCCNC(=O)[C@H](CCC(=O)[O-])NC(=O)[C@H](CCC(=O)O)NC(=O)[C@H](Cc4cc(-c5ccc(-c6cccc(Cl)c6)cc5)no4)CP(=O)(O)c4ccc(Br)cc4)cc3)C(=C/C=C3/N(CCC[N+](C)(C)C)c4ccc(S(=O)(=O)[O-])cc4C3(C)C)/CCC2)=[N+](CCC[N+](C)(C)C)c2ccc(S(=O)(=O)[O-])cc21 [probe 3] | intense signal | fully stable | fully stable | 0.124 ± 0.007 µM | > 10 µM | significantly lower residual blood level | –
2 | CC1(C)C(=CC=C2CCCC(C=CC3=[N+](CCC[N+](C)(C)C)c4ccc(S(=O)(=O)[O-])cc4C3(C)C)=C2Oc2ccc(CCC(=O)NCCCOCCOCCOCCCNC(=O)C(CCC(=O)[O-])NC(=O)C(CCC(=O)O)NC(=O)C(Cc3cc(-c4cccc(Oc5ccccc5)c4)no3)CP(=O)(O)c3ccc(Br)cc3)cc2)N(CCC[N+](C)(C)C)c2ccc(S(=O)(=O)[O-])cc21 (centres unmarked) [probe 4] | significantly lower | stable | – | 7.73 ± 1.53 µM | > 10 µM | – | no affinity
